The source of these data is patent US10955352B2, “Method for assessing a state of a living cell” (Agency for Science, Technology and Research, priority 2016, dated 2021).

The test has as its system HeLa cells. Put plainly: SERS detection and quantification of sialic acid on single living HeLa cells with DBA tag (HC-PCF). The test is classed as cell-based. On the procedure: HeLa cells were cultured in Dulbecco's modified eagle medium (DMEM) with 1% penicillin streptomycin (Gibco) and 10% fetal bovine serum (Gibco) in the dark with 5% CO2 and 37° C. until they were confluent. The cells were then harvested by adding 1×EDTA trypsin of appropriate volume for 4 min, followed by addition of DMEM of double that volume to neutralize the trypsin. The harvested cells were centrifuged at 1,500 rpm for 3 mins. The supernatant was removed and the cells were suspended with DMEM to achieve a cell concentration of 5000 cells/ml. Two milliliter of cell suspension was seeded per well in a six-well plate and allowed to grow for 48 hours.
After incubation, DMEM was removed from each well and the adhered cells were rinsed lightly with 1×PBS which was subsequently removed. Four wells were used in our experiment. In order to reduce the probability of DBA binding onto sites of sialic acid on the surface of the cell membrane, thus mimicking a cell with lowered sialic acid level, 10 mM of phenyl-boronic acid (PBA) (Sigma Aldrich) dissolved in DMEM and 1% DMSO (Merck Millipore) were added to one well (Well A) and left to incubate for 24 hours. […]
Post-incubation washing was performed for all the wells and 10 mM of DBA (Sigma Aldrich) dissolved in DMEM and 1% DMSO was added into wells A, B and C, with incubation time of 4 hours. […] Supernatant were removed after centrifugation and the cells are ready for SERS sample preparation. […]
SERS spectra were recorded using a Raman microscope system (Renishaw InVia) with a 633 nm excitation laser and equipped with a grating (spectral resolution of about 1.8 cm^−1). […]
In order to calculate the amount of sialic acid on cell for Sialic acid and (+)Sialic acid samples, intensity of the 2,000 cm^−1 peak was obtained from the SERS measurement (FIG. 10A). […] The number of sialic acid molecules may be quantified by estimating the amount of DBA molecules from the trend line as the binding between DBA molecule to the sialic acid molecule is one by one. […]

As to `C[C@]12C=CC(=O)C=C1CC[C@@H]1[C@@H]2[C@@H](O)C[C@@]2(C)[C@H]1CC[C@]2(O)C(=O)CO` [prednisolone], the “calculated sialic acid amount on a single HeLa cell” value (5 μM prednisolone 72 hours, then 10 mM DBA 4 hours, estimated from DBA calibration curve of 2,000 cm^-1 peak) was 6.782 fmol. Also, for the setting “HeLa cells, 5 μM prednisolone 72 hours, then DBA”, the “intensity at 2,000 cm^-1 (DBA alkyne peak, sialic acid expression) versus positive control” value is “higher than that of the positive control”.

Take `OB(O)c1ccccc1` [PBA, phenyl-boronic acid]: the “2,000 cm^-1 peak in Raman spectrum (DBA binding to sialic acid) after pre-treatment” value (HeLa cells, 10 mM PBA 24 hours, then 10 mM DBA 4 hours) is given as “negligible presence of that peak”.
